The values that follow are results of earlier work, collected in patent US20160008277A1, “CO-PACKAGED DRUG PRODUCTS” (Lightlake Therapeutics Inc., priority 2014, published 2016).

What is called LD50 is the dose at which mortality reaches 50%.

One series concerns mouse. As to conditions: intravenous; cited from earlier work.
The subject of the next series is rat. As to conditions: intravenous; cited from earlier work.
The test system of another series is newborn rats. As to conditions: acute subcutaneous; cited from earlier work.

`C=CCN1CC[C@]23c4c5ccc(O)c4O[C@H]2C(=O)CC[C@@]3(O)[C@H]1C5.Cl` [naloxone hydrochloride, 17-allyl-4,5a-epoxy-3,14-dihydroxymorphinan-6-one hydrochloride]: the results for the median lethal dose (LD50) in the series on mouse and in the series with rat were 150 ± 5 mg/kg and 109 ± 4 mg/kg, respectively. Further, the “LD50 (95% CL)” value with newborn rats was 260 (228-296) mg/kg.
